From patent US20260317356A1, “SMALL MOLECULE MODULATORS OF OGG1” (AZKARRA THERAPEUTICS, INC., priority 2023, published 2026)
pKd: −log10 of the molar value.

Biological target: hOGG1 (Homo sapiens, UniProt O15527)
Assay: Surface Plasma Resonance with hOGG1 to measure compound affinity (OGG1 SPR Kd)
Format: binding
Parameters: Protein His-hOGG1 (12-323) was prepared
Conditions: Biacore T-200, immobilized his-tagged OGG1; pH 7.4; 2% DMSO; single-cycle kinetics
Procedure: Surface Plasma Resonance with hOGG1 to Measure Compound Affinity (OGG1 SPR Kd); All the SPR studies were performed on a Biacore T-200 instrument (Cytiva life sciences) using series S NTA sensor chip (cat #BR-1005-32, Cytiva life sciences). Recombinant his-tagged OGG1 (mol. wt. 36003; ChemPartner, Shanghai, China) was immobilized on NTA sensor chip via Ni^2+/NTA chelation using NTA reagent kit (Cytiva life sciences; cat #289950) as per manufacturer's recommended protocol. The running buffer during immobilization contained HEPES (20 mM, pH 7.4), 150 mM NaCl, 0.5 mM TCEP (tris(2-carboxyethyl)phosphine), and 0.005% Tween-20. NTA sensor chip (experimental cell) was first conditioned by injecting regeneration solution (350 mM EDTA, flow rate 30 μL/min, 2 injections 60 each). Additional wash with 50 mM NaOH was used whenever the chip was regenerated (flow rate 30 μL/min, 1 injection of 60 s). The sensor chip was then activated with 0.5 mM NiCl2 (flow rate 10 μL/min, 2 injection of 60 s, leading to a baseline increase of ~40 RU), and the excess Ni^2+ was removed using immobilization buffer containing 3 mM EDTA (flow rate 10 μL/min, 1 injection of 60 s). Finally, OGG1 (diluted to 6.2 μg/mL in running buffer) was injected on the activated sensor chip at a flow rate of 10 μL/min until immobilization level reached ~6000 RU. Any loosely bound protein was removed by passing the immobilization buffer overnight at 20 μL/min. At this point, the drift in baseline was ~0.01 RU/s and the final immobilization level was ~2500 RU. Reference cell was left untreated. SPR binding experiments were performed using binding buffer (20 mM HEPES (pH 7.4), 150 mM NaCl, 0.5 mM TCEP, 0.005% Tween-20, and 2% DMSO) at a flow rate of 30 μL/min. Single-cycle kinetics approach was used for binding analysis which consisted of sequential injections of increasing concentrations of test compound (a 3-fold serial dilution with 5 concentrations; highest 750 or 1500 nM; with final DMSO concentration at 2%) over the immobilized protein without regeneration step between each sample injection. Each injection was 45 seconds long (contact time), followed by a final dissociation of 600 sec. The Biacore T-200 Evaluation software 3.1 (GE Healthcare) was used to determine kinetic parameters from SPR data. All the reported sensograms were reference subtracted and corrected for refractive index contributions from solvent using 8-point solvent correction (1.4 to 2.8% DMSO in binding buffer). Data were fit to both steady state and 1:1 kinetic model to obtain Kon, Koff and binding affinity (Kd).

Sequence of hOGG1 (O15527 12-323): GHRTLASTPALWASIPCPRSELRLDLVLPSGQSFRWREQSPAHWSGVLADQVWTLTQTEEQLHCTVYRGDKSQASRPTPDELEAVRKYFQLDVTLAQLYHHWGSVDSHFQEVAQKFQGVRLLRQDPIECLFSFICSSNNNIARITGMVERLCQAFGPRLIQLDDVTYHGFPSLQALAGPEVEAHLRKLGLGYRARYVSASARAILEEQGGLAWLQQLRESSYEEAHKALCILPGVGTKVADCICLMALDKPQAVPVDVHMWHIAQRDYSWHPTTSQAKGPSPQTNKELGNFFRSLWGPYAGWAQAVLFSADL

Compound	pKd
COc1cc(NC(=O)[C@H]2CC[C@@H](N3Cc4c(C)cc(CN)cc4NC3=O)CC2)ccc1C [Example 28, (1s,4s)-4-(7-(Aminomethyl)-5-methyl-2-oxo-1,2-dihydroquinazolin-3(4H)-yl)-N-(3-methoxy-4-methylphenyl)cyclohexanecarboxamide]	≥ 8.00
COc1ccc(NC(=O)[C@H]2CC[C@@H](N3Cc4c(C)ccnc4NC3=O)CC2)cc1 [Example 15, (1s,4s)-N-(4-methoxyphenyl)-4-(5-methyl-2-oxo-1,2-dihydropyrido[2,3-d]pyrimidin-3(4H)-yl)cyclohexanecarboxamide]	7.00 to 8.00
COc1ccc(NC(=O)[C@H]2CC[C@@H](N3Cc4c(C)ccc(OC)c4NC3=O)CC2)cc1Cl [Example 3, (1s,4s)-N-(3-Chloro-4-methoxyphenyl)-4-(8-methoxy-5-methyl-2-oxo-1,2-dihydroquinazolin-3(4H)-yl)cyclohexanecarboxamide]	7.00 to 8.00
COc1cc(NC(=O)[C@H]2CC[C@@H](N3Cc4c(C)ccc(CNC(C)=O)c4NC3=O)CC2)ccc1C [Example 17, (1s,4s)-4-(8-(Acetamidomethyl)-5-methyl-2-oxo-1,2-dihydroquinazolin-3(4H)-yl)-N-(3-methoxy-4-methylphenyl)cyclohexanecarboxamide]	≥ 8.00
COc1cc(NC(=O)[C@H]2CC[C@@H](N3Cc4c(C)ccc(P(C)(C)=O)c4NC3=O)CC2)ccc1C [Example 5, (1s,4s)-4-(8-(Dimethylphosphoryl)-5-methyl-2-oxo-1,2-dihydroquinazolin-3(4H)-yl)-N-(3-methoxy-4-methylphenyl)cyclohexanecarboxamide]	≥ 8.00
COc1ccc(NC(=O)[C@]2(C)CC[C@H](N3Cc4c(C)ccc(OC)c4NC3=O)CC2)cc1Cl (single isomer, unassigned) [Example 7, (1s,4s)-N-(3-chloro-4-methoxyphenyl)-4-(8-methoxy-5-methyl-2-oxo-1,2-dihydroquinazolin-3(4H)-yl)-1-methylcyclohexanecarboxamide]	7.00 to 8.00
COc1ccc(NC(=O)[C@H]2CC[C@@H](N3Cc4c(C)ccnc4NC3=O)CC2)cc1Cl [Example 14, (1s,4s)-N-(3-Chloro-4-methoxyphenyl)-4-(5-methyl-2-oxo-1,2-dihydropyrido[2,3-d]pyrimidin-3(4H)-yl)cyclohexanecarboxamide]	7.00 to 8.00

More lines, now with the values ahead:

pKd	Compound
7.00 to 8.00	COc1cc(NC(=O)[C@H]2CC[C@@H](N3Cc4c(C)cc(OCCN5CC(F)(F)C5)cc4C3=O)CC2)ccc1C [Example 255, (1s,4s)-4-(6-(2-(3,3-Difluoroazetidin-1-yl)ethoxy)-4-methyl-1-oxoisoindolin-2-yl)-N-(3-methoxy-4-methylphenyl)cyclohexanecarboxamide]
7.00 to 8.00	COc1ccc(NC(=O)[C@H]2CC[C@@H](N3Cc4c(C)cc(NCCN(C)C)cc4NC3=O)CC2)cc1C [Example 97, (1s,4s)-4-(7-(2-(dimethylamino)ethylamino)-5-methyl-2-oxo-1,2-dihydroquinazolin-3(4H)-yl)-N-(4-methoxy-3-methylphenyl)cyclohexanecarboxamide]
≥ 8.00	COc1ccc(NC(=O)[C@H]2CC[C@@H](N3Cc4c(C)cc(NCCN(C)C)cc4C3=O)CC2)cc1C [Example 256, (1s,4s)-4-(6-(2-(Dimethylamino)ethylamino)-4-methyl-1-oxoisoindolin-2-yl)-N-(4-methoxy-3-methylphenyl)cyclohexanecarboxamide]
7.00 to 8.00	COc1cc(NC(=O)[C@]2(C)CC[C@H](N3Cc4c(C)cccc4C3=O)CC2)ccc1C [Example 277, (1s,4s)-N-(3-methoxy-4-methylphenyl)-1-methyl-4-(4-methyl-1-oxoisoindolin-2-yl)cyclohexane-1-carboxamide]
7.00 to 8.00	COc1ccc(NC(=O)[C@H]2CC[C@@H](N3Cc4c(C)cccc4C3=O)CC2)cc1C [Example 227, (1s,4s)-N-(4-Methoxy-3-methylphenyl)-4-(4-methyl-1-oxoisoindolin-2-yl)cyclohexanecarboxamide]
